Assay results reported in ChEMBL document CHEMBL1150786, “Relationship of blood level and susceptibility in voriconazole treatment of histoplasmosis” (2007).
Values after ≈ are worked out from the molar mass of the structure shown.

Tests used:
Histoplasma capsulatum [1] = assay: Antimicrobial activity against Histoplasma capsulatum isolates form AIDS patient with primary histoplasmosis by modified CLSI method; assay type: functional
Histoplasma capsulatum [2] = assay: Antimicrobial activity against Histoplasma capsulatum isolates form AIDS patient with relapsed histoplasmosis by modified CLSI method; assay type: functional

**Q.** Which MIC (Histoplasma capsulatum [1]) does the source give for `C[C@@H](c1ncncc1F)[C@](O)(Cn1cncn1)c1ccc(F)cc1F` [VORICONAZOLE] here?
**A.** 0.015 µg/mL (≈ 0.0429 µM)

**Q.** What about the MIC (Histoplasma capsulatum [2]) of the same compound?
**A.** 0.03 µg/mL (≈ 0.0859 µM)
